Where two headings read alike, the source gives them in different places.
How the values were obtained:
[1] = target: JAK3 (Homo sapiens (Human), UniProt P52333); assay: JAK3 kinase assay (radiometric filter binding, 10 μM ATP); type: biochemical
Description: (§1) All additions were done on ice, followed by the addition of ATP mix. Wells were uniformly mixed using an Eppendorff plate shaker and incubated at 30° C. for 20 min, and stopped by the addition of 5 μL of 3% phosphoric acid. Volume was increased to 100 μL by adding 0.8% phosphoric acid which was then transferred to PC filter mats (Millipore), pre-equilibrated with 70% ethanol and water. Plates were washed thrice with 100 μL 0.8% phosphoric acid and dried for an hour at 60° C. 100 μL scintillation fluid was added into each well and reading taken in Perkin Elmer TOPCOUNT beta counter.
(§2) The reactions were carried out at 10 μM ATP for ITK, JAK3 and other TEC and Janus family of kinase.

[2] = target: ITK (Homo sapiens (Human), UniProt Q08881); assay: ITK kinase assay (radiometric filter binding, 10 μM ATP); type: biochemical
Description: as §1, §2

[3] = 10-dose IC50 mode, 10 μM ATP, read-out: JAK3 kinase inhibition
[4] = 10-dose IC50 mode, 10 μM ATP, read-out: ITK kinase inhibition

Chain of JAK3 (P52333 whole entry): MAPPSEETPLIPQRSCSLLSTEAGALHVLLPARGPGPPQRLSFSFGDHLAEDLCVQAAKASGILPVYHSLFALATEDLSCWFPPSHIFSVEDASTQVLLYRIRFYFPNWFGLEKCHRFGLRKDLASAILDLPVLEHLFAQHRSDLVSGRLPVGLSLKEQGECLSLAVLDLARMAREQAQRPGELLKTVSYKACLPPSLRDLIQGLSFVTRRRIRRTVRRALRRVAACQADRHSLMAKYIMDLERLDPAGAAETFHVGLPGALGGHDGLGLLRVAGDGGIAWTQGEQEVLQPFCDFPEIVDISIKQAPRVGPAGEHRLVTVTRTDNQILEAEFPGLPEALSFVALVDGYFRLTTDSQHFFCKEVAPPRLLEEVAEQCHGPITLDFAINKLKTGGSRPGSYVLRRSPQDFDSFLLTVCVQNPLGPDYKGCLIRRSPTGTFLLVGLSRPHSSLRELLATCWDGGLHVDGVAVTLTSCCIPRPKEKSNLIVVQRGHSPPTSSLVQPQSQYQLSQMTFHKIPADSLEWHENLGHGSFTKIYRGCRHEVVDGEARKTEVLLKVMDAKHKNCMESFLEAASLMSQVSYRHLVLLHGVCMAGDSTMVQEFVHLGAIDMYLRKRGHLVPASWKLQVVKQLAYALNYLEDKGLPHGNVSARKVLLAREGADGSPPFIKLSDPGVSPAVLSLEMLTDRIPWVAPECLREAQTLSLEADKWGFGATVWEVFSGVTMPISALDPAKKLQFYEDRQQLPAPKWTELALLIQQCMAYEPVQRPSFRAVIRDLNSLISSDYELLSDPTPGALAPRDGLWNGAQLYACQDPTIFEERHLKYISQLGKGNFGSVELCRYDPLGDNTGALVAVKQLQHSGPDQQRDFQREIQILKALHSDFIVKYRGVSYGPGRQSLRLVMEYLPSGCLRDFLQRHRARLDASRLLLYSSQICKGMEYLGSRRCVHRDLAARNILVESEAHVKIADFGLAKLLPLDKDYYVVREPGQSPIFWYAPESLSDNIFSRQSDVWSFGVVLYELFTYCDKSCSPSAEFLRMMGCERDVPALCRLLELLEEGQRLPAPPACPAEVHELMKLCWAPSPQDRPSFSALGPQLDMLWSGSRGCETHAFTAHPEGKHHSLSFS
Chain of ITK (Q08881 whole entry): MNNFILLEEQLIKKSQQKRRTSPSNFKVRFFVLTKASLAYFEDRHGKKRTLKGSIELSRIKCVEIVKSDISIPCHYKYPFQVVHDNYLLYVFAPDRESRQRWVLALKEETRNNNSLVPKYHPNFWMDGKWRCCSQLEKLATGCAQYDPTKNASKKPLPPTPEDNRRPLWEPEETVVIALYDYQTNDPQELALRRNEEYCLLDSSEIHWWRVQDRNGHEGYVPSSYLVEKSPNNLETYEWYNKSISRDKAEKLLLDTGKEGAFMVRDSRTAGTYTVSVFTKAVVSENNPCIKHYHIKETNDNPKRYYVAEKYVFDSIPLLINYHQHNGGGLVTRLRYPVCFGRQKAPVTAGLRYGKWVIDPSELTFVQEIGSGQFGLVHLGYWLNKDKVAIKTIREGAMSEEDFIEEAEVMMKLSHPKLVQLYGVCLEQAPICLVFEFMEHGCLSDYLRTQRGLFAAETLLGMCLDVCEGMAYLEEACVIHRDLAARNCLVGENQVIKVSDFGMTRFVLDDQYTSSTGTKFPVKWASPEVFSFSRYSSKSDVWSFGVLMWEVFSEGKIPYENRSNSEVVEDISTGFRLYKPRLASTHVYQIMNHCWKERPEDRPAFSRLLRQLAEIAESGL

`C=CC(=O)Nc1cccc(-c2cnc3[nH]cc(-c4cc5ccccc5[nH]4)c3c2)c1` [Example 66, N-(3-(3-(1H-indol-2-yl)-1H-pyrrolo[2,3-b]pyridin-5-yl)phenyl)acrylamide] gave an IC50 [1, 3] of less than 100 nM, an IC50 ([1]; read-out: biochemical IC50 against JAK3) of 100 to 1000 nM and an IC50 [2, 4] of less than 100 nM. It also gave an IC50 ([2]; read-out: biochemical IC50 against ITK) of 100 to 1000 nM.
`C=CC(=O)Nc1ccc(-c2cnc3[nH]cc(Cl)c3c2)cc1F` [Example 62, -(4-(3-chloro-1H-pyrrolo[2,3-b]pyridin-5-yl)-2-fluorophenyl)acrylamide] was tested, and the IC50 [1, 3] was greater than 100 nM and the IC50 [2, 4] was greater than 1000 nM.
Work on `CC/C=C/C(=O)Nc1cc(-c2cnc3[nH]cc(Cl)c3c2)ccc1Cl` [Example 47, (E)-N-(2-chloro-5-(3-chloro-1H-pyrrolo[2,3-b]pyridin-5-yl)phenyl)pent-2-enamide] yielded an IC50 [1, 3] greater than 1000 nM and an IC50 [2, 4] greater than 1000 nM.
With `C=CC(=O)Nc1cc(-c2cnc3[nH]cc(C)c3c2)ccc1Cl` [Example 15, N-(2-chloro-5-(3-methyl-1H-pyrrolo[2,3-b]pyridin-5-yl)phenyl)acrylamide] the IC50 [1, 3] was greater than 100 nM and the IC50 [2, 4] was greater than 100 nM.
In the case of `C=CC(=O)Nc1cc(-c2cnc3[nH]cc(-c4cc(F)cc(F)c4OC)c3c2)ccc1F` [Example 38, N-(5-(3-(3,5-difluoro-2-methoxyphenyl)-1H-pyrrolo[2,3-b]pyridin-5-yl)-2-fluorophenyl)acrylamide], the IC50 [1, 3] is reported as greater than 100 nM and the IC50 [2, 4] is reported as greater than 100 nM.
Molecule `C=CC(=O)Nc1cc(-c2cnc3[nH]cc(-c4cc(F)cc(F)c4OC)c3c2)c(F)cc1F` [Example 39, N-(5-(3-(3,5-difluoro-2-methoxyphenyl)-1H-pyrrolo[2,3-b]pyridin-5-yl)-2,4-difluorophenyl)acrylamide] has an IC50 [1, 3] greater than 100 nM and an IC50 [2, 4] greater than 100 nM.
With `C=CC(=O)Nc1cccc(-c2cnc3[nH]ccc3c2)n1` [Example 57, N-(6-(1H-pyrrolo[2,3-b]pyridin-5-yl)pyridin-2-yl)acrylamide] the IC50 [1, 3] was less than 100 nM and the IC50 [2, 4] was greater than 100 nM.
Work on `COc1cc(F)c(C)cc1-c1c[nH]c2ncc(-c3cc(F)cc(NC(=O)/C(C)=C/C(C)(C)C)c3C)cc12` [Example 173, (E)-N-(5-fluoro-3-(3-(4-fluoro-2-methoxy-5-methylphenyl)-1H-pyrrolo[2,3-b]pyridin-5-yl)-2-methylphenyl)-2,4,4-trimethylpent-2-enamide] yielded an IC50 [1, 3] of less than 100 nM and an IC50 [2, 4] of less than 100 nM.
`CN(C)C/C=C/C(=O)Nc1cccc(-c2cnc3[nH]cc(Cl)c3c2)c1` [Example 153, (E)-N-(3-(3-chloro-1H-pyrrolo[2,3-b]pyridin-5-yl)phenyl)-4-(dimethylamino)but-2-enamide] showed an IC50 [1, 3] of less than 100 nM and an IC50 [2, 4] greater than 100 nM.
`C=CC(=O)Nc1cccc(-c2cnc3[nH]cc(-c4cc(F)cc(F)c4OC)c3c2)c1` [Example 30, N-(3-(3-(3,5-difluoro-2-methoxyphenyl)-1H-pyrrolo[2,3-b]pyridin-5-yl)phenyl)acrylamide] showed an IC50 [1, 3] of less than 100 nM and an IC50 [2, 4] of less than 100 nM.
`Cc1cccc(-c2c[nH]c3ncc(-c4cccc(NC(=O)/C=C/CN(C)C)c4)cc23)c1F` [Example 145, (E)-4-(dimethylamino)-N-(3-(3-(2-fluoro-3-methylphenyl)-1H-pyrrolo[2,3-b]pyridin-5-yl)phenyl)but-2-enamide] was tested, and the IC50 [1, 3] was greater than 100 nM and the IC50 [2, 4] was greater than 100 nM.
`C#CC(=O)Nc1cccc(-c2cnc3[nH]cc(-c4cccc(S(=O)(=O)N(C)C(C)(C)C)c4)c3n2)c1` [Example 95, N-(3-(7-(3-(N-(tert-butyl)-N-methylsulfamoyl)phenyl)-5H-pyrrolo[2,3-b]pyrazin-2-yl)phenyl)propiolamide] showed an IC50 [1, 3] greater than 100 nM and an IC50 [2, 4] greater than 100 nM.
Molecule “(E)-N-(3-(3-methyl-1H- pyrazolo[3,4-b]pyridin-5- yl)phenyl)acrylamide [Example 51]” has an IC50 ([1]; read-out: JAK3 kinase inhibition) greater than 100 nM and an IC50 ([2]; read-out: ITK kinase inhibition) greater than 100 nM.
Work on `Cc1c[nH]c2ncc(-c3cccc(NC(=O)/C=C/CN(C)C)c3)cc12` [Example 152, (E)-4-(dimethylamino)-N-(3-(3-methyl-1H-pyrrolo[2,3-b]pyridin-5-yl)phenyl)but-2-enamide] yielded an IC50 [1, 3] greater than 100 nM and an IC50 [2, 4] greater than 100 nM.
